Source: patent publication US20240270821A1, “GIP/GLP1/GCG TRI-RECEPTOR AGONISTS AND USES THEREOF” (priority 2023, published 2024)
Starred links: 1 amine or outer side, 2 acyl side, 3 side chain; linkers in the order of their positions; H or OH if unused. Non-standard residues stand in square brackets, D forms with d. Groups on a side chain read outwards from the residue. No end group written: not given here. *: point of attachment. C18 diacid = O=C(O)CCCCCCCCCCCCCCCCC(=O)*; γGlu = O=C(O)[C@H](CCC(=O)[*:2])N[*:1]; αMe4Pal = C[C@](N)(Cc1ccncc1)C(=O)O; 4Pal = N[C@@H](Cc1ccncc1)C(=O)O; αMeL = CC(C)C[C@](C)(N)C(=O)O; Orn = NCCC[C@H](N)C(=O)O; Dab = NCC[C@H](N)C(=O)O; AEEA = NCCOCCOCC(=O)O; Aib = CC(C)(N)C(=O)O

Tests used:
hGIPR [1] = target: T1, hGIPR (Homo sapiens, UniProt P48546); assay: Functional cAMP activity in the presence of 1% HSA; format: cell-based; settings: read-out: cAMP Rel EC50, hGIPR
T1 sequence (P48546 22-466): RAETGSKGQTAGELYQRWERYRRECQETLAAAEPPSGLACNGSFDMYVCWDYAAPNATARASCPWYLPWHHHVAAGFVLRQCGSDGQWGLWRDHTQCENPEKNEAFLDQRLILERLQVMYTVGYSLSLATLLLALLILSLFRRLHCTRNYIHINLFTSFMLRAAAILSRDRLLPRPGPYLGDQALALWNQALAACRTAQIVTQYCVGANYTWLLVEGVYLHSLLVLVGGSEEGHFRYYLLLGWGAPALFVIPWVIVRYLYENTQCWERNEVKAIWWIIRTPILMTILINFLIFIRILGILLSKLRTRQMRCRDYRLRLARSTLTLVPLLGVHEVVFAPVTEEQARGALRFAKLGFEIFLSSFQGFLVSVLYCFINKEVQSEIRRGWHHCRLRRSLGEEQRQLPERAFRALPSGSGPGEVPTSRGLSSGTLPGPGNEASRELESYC

hGLP-1R [2] = target: T2, hGLP-1R (Homo sapiens, UniProt P43220); assay: Functional cAMP activity in the presence of 1% HSA; format: cell-based; settings: read-out: cAMP Rel EC50, hGLP-1R
human GcgR = human GcgR (Homo sapiens, UniProt P47871); assay: Functional cAMP activity in the presence of 1% HSA; format: cell-based; settings: read-out: cAMP Rel EC50, hGcgR
hGIPR [3] = target: T1, hGIPR; assay: Functional cAMP activation in the presence of 0.1% casein (no HSA); format: cell-based; settings: in the presence of 0.1% casein (no HSA); geometric mean; read-out: Relative cAMP EC50, hGIPR;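 for Relative cAMP EC50, hGIPR: intracellular cAMP rise after 30 min at 37 °C read by HTRF against a standard curve, scaled between buffer alone (0%) and top control ligand concentration (100%), four-parameter fit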;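 for Relative cAMP EC50, hGLP-1R: intracellular cAMP rise after 30 min at 37 °C read by HTRF, normalized between buffer only (0%) and maximal control ligand (100%), four-parameter variable-slope fit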;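 for Relative cAMP EC50, hGcgR: intracellular cAMP rise after 30 min at 37 °C, read by HTRF against a cAMP standard curve, scaled from buffer only (0%) to maximal control ligand response (100%)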
hGLP-1R [4] = target: T2, hGLP-1R; assay: as above; format: cell-based; settings: in the presence of 0.1% casein (no HSA); geometric mean; read-out: Relative cAMP EC50, hGLP-1R
hGcgR = hGcgR (Homo sapiens, UniProt P47871); assay: as above; format: cell-based; settings: in the presence of 0.1% casein (no HSA); geometric mean; read-out: Relative cAMP EC50, hGcgR;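 note: intracellular cAMP rise after 30 min at 37 °C, read by HTRF against a cAMP standard curve, scaled from buffer only (0%) to maximal control ligand response (100%)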
human GLP1-R = human GLP1-R (Homo sapiens, UniProt P43220); assay: GLP1-R internalization assay in HEK293 cells; format: cell-based; settings: for EC50: HEK293 cells expressing SNAP-GLP-1R, read-out: GLP1R Internalization EC50; for Internalization % TOP: normalized to maximum concentration of GLP-1 (100%)
[5] = tested on: Intestinal organoid from Göttingen minipig jejunum tissue, 2D monolayer; assay: Cell based in vitro permeability (Papp) assay; format: in vitro ADME
Outline: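 Papp calculated from LC/MS peptide levels in apical and basal compartments. Basal sampling at 20 min with C10 present, across monolayers grown from dissociated minipig jejunal organoids in transwells.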

T2 sequence (P43220 24-463): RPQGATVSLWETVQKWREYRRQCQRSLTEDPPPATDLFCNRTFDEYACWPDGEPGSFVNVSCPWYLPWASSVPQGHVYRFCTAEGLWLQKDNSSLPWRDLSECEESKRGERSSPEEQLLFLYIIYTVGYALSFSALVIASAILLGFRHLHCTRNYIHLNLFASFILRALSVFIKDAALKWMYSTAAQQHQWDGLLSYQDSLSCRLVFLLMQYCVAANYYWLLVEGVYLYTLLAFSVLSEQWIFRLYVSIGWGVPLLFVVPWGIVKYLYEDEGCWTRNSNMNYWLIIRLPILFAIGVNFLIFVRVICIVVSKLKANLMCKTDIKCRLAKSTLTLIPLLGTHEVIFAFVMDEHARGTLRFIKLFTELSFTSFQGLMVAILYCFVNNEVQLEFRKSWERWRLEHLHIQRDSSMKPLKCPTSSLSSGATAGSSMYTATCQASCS
Sequence of human GLP1-R (P43220 24-463): as above
Sequence of hGcgR (P47871 26-477): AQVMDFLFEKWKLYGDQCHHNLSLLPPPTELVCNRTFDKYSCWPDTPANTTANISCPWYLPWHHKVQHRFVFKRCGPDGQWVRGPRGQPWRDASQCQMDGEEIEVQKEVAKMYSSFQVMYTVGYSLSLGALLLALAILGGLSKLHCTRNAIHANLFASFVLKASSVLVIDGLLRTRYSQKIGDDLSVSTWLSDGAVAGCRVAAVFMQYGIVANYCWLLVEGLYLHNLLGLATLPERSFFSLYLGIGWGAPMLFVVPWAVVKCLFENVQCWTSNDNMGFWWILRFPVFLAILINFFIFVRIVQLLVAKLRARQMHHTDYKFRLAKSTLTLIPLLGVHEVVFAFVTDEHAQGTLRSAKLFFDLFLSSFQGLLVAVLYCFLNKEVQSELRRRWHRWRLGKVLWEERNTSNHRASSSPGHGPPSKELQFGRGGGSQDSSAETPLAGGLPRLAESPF
Sequence of human GcgR (P47871 26-477): as above

| Compound | EC50 (hGIPR [1]) [nM] | EC50 (hGLP-1R [2]) [nM] | EC50 (human GcgR) [nM] | EC50 (hGIPR [3]) [nM] | EC50 (hGLP-1R [4]) [nM] | EC50 (hGcgR) [nM] | EC50 (human GLP1-R) [nM] | Internalization % TOP (human GLP1-R) [%] | Relative Papp (Compared to internal standard) [5] |
| --- | --- | --- | --- | --- | --- | --- | --- | --- | --- |
| H-Y[Aib]QGTFTSD[4Pal]SQ[αMeL]LDKK([AEEA-γGlu-C18 diacid])AQ[αMe4Pal]AFIEYLIE[Aib]GESSGAPPPSGE-NH2 [Example 227] | 39.7 | 418 | 937 | 0.17 | 2.34 | 4.22 | 114 | 59.4 | 0.42 |
| H-Y[Aib]QGTFTSDFS[Orn][αMeL]LDKK([AEEA-γGlu-C18 diacid])AQ[Aib]AFIEYLLE[dA]GPSS[Aib]APPPSGT-NH2 [Example 214] | 15.1 | 186 | 302 | 0.103 | 1.22 | 2.49 | 50.1 | 41.7 | 0.07 |
| H-Y[Aib]QGTFTSDFS[Orn][αMeL]LDKK([AEEA-γGlu-C18 diacid])AQ[Aib]AFIEYLLE[Aib]GPSS[Aib]APPPSGS-NH2 [Example 238] | 8.78 | 262 | 334 | 0.0909 | 2.71 | 2.78 | 32.1 | 38.2 | 0.06 |
| H-Y[Aib]QGTFTSDFS[Orn][αMeL]LDKK([AEEA-γGlu-C18 diacid])AQ[Aib]AFIEYLLE[Aib]GHSSGAPPPSGS-NH2 [Example 241] | 9.36 | 264 | 543 | 0.0748 | 2.3 | 2.71 | 64.4 | 37.6 | 0.10 |
| H-Y[Aib]QGTFTSDYSR[αMeL]LDKK([AEEA-γGlu-C18 diacid])AQ[Aib]AFIEYLLEGGESSGAPPPSGS-NH2 [Example 361] | 46.3 | 376 | 987 | 0.214 | 2.08 | 2.73 | 50.4 | 73 | 0.10 |
| Y[Aib]QGTFTSDFS[Orn][αMeL]LDKK([AEEA-AEEA-γGlu-C18 diacid])AQ[Aib]AFIEYLLE[dA]GPSSGEPPPSGS-NH2 [Example 155] | 18.9 | 503 | 1310 | 0.177 | 2.98 | 5.68 | 85.1 | 54.5 | 0.07 |
| Y[Aib]QGTFTSDFS[Orn][αMeL]LDKK([AEEA-AEEA-γGlu-C18 diacid])AQ[Aib]AFIEYLLE[dA]GPSSGHPPPSGH-NH2 [Example 255] | 21.9 | 272 | 883 | 0.107 | 1.9 | 5.48 | 47.1 | 51.8 | 0.23 |
| H-Y[Aib]QGTFTSD[4Pal]S[Dab][αMeL]LDKK([AEEA-γGlu-C18 diacid])AQ[Aib]AFIEYLIE[Aib]GESSGAPPPSGS-NH2 [Example 188] | 43.8 | 436 | 2920 | 0.193 | 3.43 | 10.8 | 44.7 | 40.2 | 0.46 |
| CC[C@H](C)[C@H](NC(=O)[C@H](Cc1ccccc1)NC(=O)[C@H](C)NC(=O)C(C)(C)NC(=O)[C@H](CCC(N)=O)NC(=O)[C@H](C)NC(=O)[C@H](CCCCNC(=O)COCCOCCNC(=O)CC[C@H](NC(=O)CCCCCCCCCCCCCCCCC(=O)O)C(=O)O)NC(=O)[C@H](CCCCN)NC(=O)[C@H](CC(=O)O)NC(=O)[C@H](CC(C)C)NC(=O)[C@](C)(CC(C)C)NC(=O)[C@H](CCCN)NC(=O)[C@H](CO)NC(=O)[C@H](Cc1ccccc1)NC(=O)[C@H](CC(=O)O)NC(=O)[C@H](CO)NC(=O)[C@@H](NC(=O)[C@H](Cc1ccccc1)NC(=O)[C@@H](NC(=O)CNC(=O)[C@H](CCC(N)=O)NC(=O)C(C)(C)NC(=O)[C@@H](N)Cc1ccc(O)cc1)[C@@H](C)O)[C@@H](C)O)C(=O)N[C@@H](CCC(=O)O)C(=O)N[C@@H](Cc1c[nH]c2ccccc12)C(=O)N[C@@H](CC(C)C)C(=O)N[C@@H](CC(C)C)C(=O)N[C@@H](CCC(=O)O)C(=O)NCC(=O)NCC(=O)N1CCC[C@H]1C(=O)N[C@@H](CO)C(=O)N[C@@H](CO)C(=O)NCC(=O)N[C@@H](C)C(=O)N1CCC[C@H]1C(=O)N1CCC[C@H]1C(=O)N1CCC[C@H]1C(=O)N[C@@H](CO)C(=O)NCC(=O)N[C@@H](CCC(=O)O)C(N)=O [Example 119] | 19.7 | 387 | 839 | 0.179 | 3.67 | 5.6 | 73.5 | 43.4 | 0.15 |
| H-Y[Aib]QGTFTSD[4Pal]S[Orn][αMeL]LDKK([AEEA-γGlu-C18 diacid])AQ[αMe4Pal]AFIEYLIE[Aib]GESSGAPPPSGS-NH2 [Example 223] | 37.2 | 627 | 373 | 0.215 | 2.83 | 1.57 | 45.8 | 59.3 | 0.29 |
| H-Y[Aib]QGTFTSDFS[Orn][αMeL]LDKK([AEEA-γGlu-C18 diacid])AQ[Aib]AFIEWLLEGGSSSGAPPPSGT-NH2 [Example 174] | 20.8 | 208 | 307 | 0.198 | 2.33 | 4.24 | 123 | 52.8 | 0.12 |
| H-Y[Aib]QGTFTSDFS[Orn][αMeL]LDKK([AEEA-AEEA-γGlu-C18 diacid])AQ[Aib]AFIEYLLE[Aib]G[4Pal]SSGAPPPSGE-NH2 [Example 189] | 22.2 | 423 | 853 | 0.0695 | 4.46 | 6.28 | 103 | 45.8 | 0.17 |
| H-Y[Aib]QGTFTSD[4Pal]SQ[αMeL]LDKK([AEEA-γGlu-C18 diacid])AQ[αMe4Pal]AFIEYLIE[Aib]GESSGAPPPSGS-NH2 [Example 226] | 32.2 | 354 | 763 | 0.127 | 1.97 | 3.08 | 29.1 | 59.3 | 0.36 |
| CC[C@H](C)[C@H](NC(=O)[C@H](Cc1ccccc1)NC(=O)[C@H](C)NC(=O)C(C)(C)NC(=O)[C@H](CCC(N)=O)NC(=O)[C@H](C)NC(=O)[C@H](CCCCNC(=O)COCCOCCNC(=O)CC[C@H](NC(=O)CCCCCCCCCCCCCCCCC(=O)O)C(=O)O)NC(=O)[C@H](CCCCN)NC(=O)[C@H](CC(=O)O)NC(=O)[C@H](CC(C)C)NC(=O)[C@](C)(CC(C)C)NC(=O)[C@H](CCCN)NC(=O)[C@H](CO)NC(=O)[C@H](Cc1ccccc1)NC(=O)[C@H](CC(=O)O)NC(=O)[C@H](CO)NC(=O)[C@@H](NC(=O)[C@H](Cc1ccccc1)NC(=O)[C@@H](NC(=O)CNC(=O)[C@H](CCC(N)=O)NC(=O)C(C)(C)NC(=O)[C@@H](N)Cc1ccc(O)cc1)[C@@H](C)O)[C@@H](C)O)C(=O)N[C@@H](CCC(=O)O)C(=O)N[C@@H](Cc1ccc(O)cc1)C(=O)N[C@@H](CC(C)C)C(=O)N[C@@H](CC(C)C)C(=O)N[C@@H](CCC(=O)O)C(=O)N[C@H](C)C(=O)NCC(=O)N1CCC[C@H]1C(=O)N[C@@H](CO)C(=O)N[C@@H](CO)C(=O)NCC(=O)N[C@@H](C)C(=O)N1CCC[C@H]1C(=O)N1CCC[C@H]1C(=O)N1CCC[C@H]1C(=O)N[C@@H](CO)C(=O)NCC(=O)N[C@H](C(N)=O)[C@@H](C)O [Example 210] | 23.5 | 264 | 501 | 0.153 | 1.44 | 2.81 | 80.2 | 49.2 | 0.06 |
| H-Y[Aib]QGTFTSDFS[Orn][αMeL]LDKK([AEEA-γGlu-C18 diacid])AQ[Aib]AFIEWLLEGGPSSGAPPPTGS-NH2 [Example 250] | 11.7 | 194 | 201 | 0.154 | 2.08 | 3.81 | 97 | 45 | 0.11 |
